{"source": "patent US20090209469A1", "about": "“Use of Exendins and GLP-1 Receptor Agonists for Altering Lipoprotein Particle Size and Subclass Composition” (priority 2006, published 2009)", "key": {"[1]": {"test_system": "Patients with type 2 diabetes inadequately controlled by sulphonylurea and metformin", "test": "Lipoprotein subclass particle concentrations and average particle diameters by proton NMR spectroscopy, 1-year open-label trial (test meal study)", "assay_type": "in vivo, human", "conditions": "change from baseline to endpoint (week 52), type 2 diabetes patients", "method": "In the context of the present invention, lipoprotein concentrations are measured according to standard nuclear magnetic resonance techniques, where the measured amplitudes of characteristic lipid methyl group signals provide particle concentrations.\nIn the context of the present invention, lipoprotein subclass particle concentrations and average particle diameters are measured using proton nuclear magnetic resonance spectroscopy using the algorithm of LipoScience, Inc. See e.g., Festa et al., Nuclear Magnetic Resonance Lipoprotein Abnormalities in Prediabetic Subjects in the Insulin Resistance Artherosclerosis Study, Circulation, 111:3465-3472 (2005). […]\nLipoprotein subclass particle concentrations and average particle diameters are measured using proton nuclear magnetic resonance spectroscopy. See e.g., Festa et at., Nuclear Magnetic Resonance Lipoprotein Abnormalities in Prediabetic Subjects in the Insulin Resistance Artherosclerosis Study, Circulation, 111:3465-3472 (2005).\nThe particle concentrations of different lipoprotein subclasses are obtained by measuring the amplitudes of the characteristic lipid methyl NMR signals. The signal amplitudes of various subclasses are extracted from the overall lipid methyl group signal with a spectral deconvolution algorithm (Lipo Science, Inc.). See e.g., Festa. VLDL and LDL particle concentrations are given in nanomoles per liter. HDL particle concentrations are provided in micromoles per liter.\nAverage particle sizes (in nanometers diameter) are computed as the sum of the diameter of the particle subclass multiplied by the relative mass percentage of the subclass as estimated from the amplitude of its methyl NMR signal.\nParticle concentrations and sizes are compared before and after administration of an exendin or exendin agonist. See e.g., Table 1."}, "[2]": {"test_system": "Patients with type 2 diabetes inadequately controlled by sulphonylurea and metformin", "test": "Fibrinogen concentration by the von Clauss clotting method", "assay_type": "in vivo, human", "conditions": "type 2 diabetes patients", "method": "For test meal data, postprandial glucose incremental AUC0-4h is calculated at baseline and week 52.\nFibrinogen activity is measured by the von Clauss clotting method. By the von Clauss clotting method, thrombin is added to a test sample and the time until clotting is measured. Fibrinogen concentration is determined by comparing clotting time for the test sample to the clotting time of a standard curve for various reference plasmas.\nFibrinogen is measured at baseline, Week 16, Week 52, or at early termination of the study."}}, "data": [{"substance": "biphasic insulin aspart 30/70", "values": [{"measurement": "HDL Particle Size, Δ mean", "setting": "[1]", "result": "+0.04 nm"}, {"measurement": "VLDL Particle Size, Δ mean", "setting": "[1]", "result": "−1.6", "unit": "nm"}, {"measurement": "LDL Particle Size, Δ mean", "setting": "[1]; exenatide 5 μg BID 4 weeks then 10 μg BID 48 weeks vs biphasic insulin aspart 30/70", "result": "+0.11 nm"}, {"measurement": "Large HDL, Δ mean", "setting": "[1]; particle concentration", "result": "+1.0 μmol/L"}, {"measurement": "Large LDL, Δ mean", "setting": "[1]; particle concentration", "result": "+37.7 nmol/L"}, {"measurement": "Small LDL, Δ mean", "setting": "[1]; particle concentration", "result": -25.8, "unit": "nmol/L"}, {"measurement": "Small VLDL, Δ mean", "setting": "[1]; particle concentration", "result": "+8.5 nmol/L"}, {"measurement": "Total HDL, Δ mean", "setting": "[1]; particle concentration", "result": "+2.5 μmol/L"}, {"measurement": "Total LDL, Δ mean", "setting": "[1]; particle concentration", "result": "+5.0 nmol/L"}, {"measurement": "Total VLDL, Δ mean", "setting": "[1]; particle concentration", "result": "+12.9 nmol/L"}, {"measurement": "Very Small LDL, Δ mean", "setting": "[1]; particle concentration", "result": -17.0, "unit": "nmol/L"}, {"measurement": "Fibrinogen level, mean, Baseline", "setting": "[2]; baseline, before treatment", "result": 4.22, "unit": "g/L"}, {"measurement": "Fibrinogen level, mean, Endpoint (LOCF)", "setting": "[2]; endpoint, last post-baseline measurement carried forward (Week 16, Week 52 or early termination)", "result": 4.16, "unit": "g/L"}]}]}
